The values that follow come from US20180002320A1, “USE OF MACROCYCLIC PICOLINAMIDES AS FUNGICIDES” (DOW AGROSCIENCES LLC, priority 2014, published 2018).

Structures are written as SMILES. Where two headings read alike, the source gives them in different places.

The test system of one assay is Puccinia triticina. As to the kind of experiment: Wheat Brown Rust (PUCCRT) fungicidal activity. In kind it is in vivo. The settings on record: for pest or weed control at 121.5 g/ha: Low Volume (121.5 g/H); for pest or weed control at 100 µg/mL: High Volume (100 ppm). As to the method: Technical grades of materials were dissolved in acetone, which were then mixed with nine volumes of H2O containing 110 ppm Triton X-100. The fungicide solutions were applied onto wheat seedlings using an automated booth sprayer to run-off. All sprayed plants were allowed to air dry prior to further handling. All fungicides were evaluated using the aforementioned method for their activity vs. all target diseases, unless stated otherwise. Wheat leaf blotch and brown rust activity were also evaluated using track spray applications, in which case the fungicides were formulated as EC formulations, containing 0.1% Trycol 5941 in the spray solutions. Wheat plants (variety Yuma) were grown from seed in a greenhouse in 50% mineral soil/50% soil-less Metro mix until the first leaf was fully emerged, with 7-10 seedlings per pot. These plants were inoculated with an aqueous spore suspension of Puccinia triticina either prior to or after fungicide treatments. After inoculation the plants were kept in a dark dew room at 22° C. with 100% relative humidity overnight to permit spores to germinate and infect the leaf. The plants were then transferred to a greenhouse set at 24° C. for disease to develop. Fungicide formulation, application and disease assessment followed the procedures as described in the Example A.

Another assay concerns Zymoseptoria tritici. As to the kind of experiment: Leaf Blotch of Wheat (SEPTTR) fungicidal activity. In kind it is in vivo. The settings on record: for pest or weed control at 121.5 g/ha: Low Volume (121.5 g/H); for pest or weed control at 100 µg/mL: High Volume (100 ppm). On the procedure: Technical grades of materials were dissolved in acetone, which were then mixed with nine volumes of H2O containing 110 ppm Triton X-100. The fungicide solutions were applied onto wheat seedlings using an automated booth sprayer to run-off. All sprayed plants were allowed to air dry prior to further handling. All fungicides were evaluated using the aforementioned method for their activity vs. all target diseases, unless stated otherwise. Wheat leaf blotch and brown rust activity were also evaluated using track spray applications, in which case the fungicides were formulated as EC formulations, containing 0.1% Trycol 5941 in the spray solutions. Wheat plants (variety Yuma) were grown from seed in a greenhouse in 50% mineral soil/50% soil-less Metro mix until the first leaf was fully emerged, with 7-10 seedlings per pot. These plants were inoculated with an aqueous spore suspension of Zymoseptoria tritici either prior to or after fungicide treatments. After inoculation the plants were kept in 100% relative humidity (one day in a dark dew chamber followed by two to three days in a lighted dew chamber at 20° C.) to permit spores to germinate and infect the leaf. The plants were then transferred to a greenhouse set at 20° C. for disease to develop. When disease symptoms were fully expressed on the 1st leaves of untreated plants, infection levels were assessed on a scale of 0 to 100 percent disease severity. Percent disease control was calculated using the ratio of disease severity on treated plants relative to untreated plants.

The mark [1] stands for this setting: 24 h, 1 Day Protectant, read-out: PUCCRT 1DP disease control.
Setting [2] is: 72 h, 3 Day Curative, read-out: PUCCRT 3DC disease control.
The mark [3] stands for this setting: 24 h, 1 Day Protectant, read-out: SEPTTR 1DP disease control.
Setting [4] is: 72 h, 3 Day Curative, read-out: SEPTTR 3DC disease control.

For `COc1ccnc(C(=O)N[C@H]2CCCC[C@H](CC3CCCC3)[C@@H](OC)[C@H](C)OC2=O)c1OC(C)=O` [Compound 59], the results for the pest or weed control at 121.5 g/ha in the assay with Puccinia triticina (setting [1]), in the assay on Puccinia triticina (setting [2]) and in the assay on Zymoseptoria tritici (setting [3]) were greater than 80%, greater than 80% and less than 80%, respectively.
Take `COc1ccnc(C(=O)N[C@H]2CCCC[C@H](Cc3ccccc3)[C@@H](OC(=O)C(C)C)[C@H](C)OC2=O)c1OCOC(C)=O` [Compound 60]: the pest or weed control at 121.5 g/ha in the assay with Puccinia triticina (setting [1]), with Puccinia triticina (setting [2]), with Zymoseptoria tritici (setting [3]) and with Zymoseptoria tritici (setting [4]) was greater than 80% throughout.
Regarding `COc1ccnc(C(=O)N[C@H]2CCCC[C@H](CC3CCCC3)[C@@H](OC)[C@H](C)OC2=O)c1OCOC(C)=O` [Compound 61], the pest or weed control at 121.5 g/ha was greater than 80% in the assay on Puccinia triticina (setting [1]), greater than 80% with Puccinia triticina (setting [2]), less than 80% with Zymoseptoria tritici (setting [3]) and less than 80% in the assay on Zymoseptoria tritici (setting [4]).
Regarding `COc1ccnc(C(=O)N[C@H]2CCCC[C@H](Cc3ccccc3)[C@@H](Oc3ccccc3)[C@H](C)OC2=O)c1OCOC(C)=O` [Compound 62], the pest or weed control at 121.5 g/ha in the assay with Puccinia triticina (setting [1]) was greater than 80%; in the assay with Puccinia triticina (setting [2]), less than 80%; with Zymoseptoria tritici (setting [3]), greater than 80%; in the assay on Zymoseptoria tritici (setting [4]), greater than 80%.
`COc1ccnc(C(=O)N[C@H]2CCCC[C@H](Cc3ccccc3)[C@@H](Oc3ccccc3)[C@H](C)OC2=O)c1OC(C)=O` [Compound 64]: the pest or weed control at 121.5 g/ha in the assay on Puccinia triticina (setting [1]) was greater than 80%; in the assay with Puccinia triticina (setting [2]), less than 80%; in the assay with Zymoseptoria tritici (setting [3]) it was greater than 80%; with Zymoseptoria tritici (setting [4]), greater than 80%.
In the case of `COc1ccc(C[C@H]2CCOC[C@H](NC(=O)c3nccc(OC)c3OC(C)=O)C(=O)O[C@@H](C)[C@@H]2Oc2ccccc2)cc1` [Compound 65], the pest or weed control at 121.5 g/ha in the assay with Puccinia triticina (setting [1]) is greater than 80%; with Puccinia triticina (setting [2]), less than 80%; with Zymoseptoria tritici (setting [3]), greater than 80%; in the assay with Zymoseptoria tritici (setting [4]), less than 80%.
In the case of `COc1ccc(C[C@H]2CCOC[C@H](NC(=O)c3nccc(OC)c3OCOC(C)=O)C(=O)O[C@@H](C)[C@@H]2Oc2ccccc2)cc1` [Compound 66], the pest or weed control at 121.5 g/ha in the assay on Puccinia triticina (setting [1]) was greater than 80%; with Puccinia triticina (setting [2]) it was less than 80%; with Zymoseptoria tritici (setting [3]), greater than 80%; in the assay on Zymoseptoria tritici (setting [4]) it was greater than 80%.
Regarding `COc1ccc(C[C@H]2CCOC[C@H](NC(=O)c3nccc(OC)c3OCOC(=O)C(C)C)C(=O)O[C@@H](C)[C@@H]2Oc2ccccc2)cc1` [Compound 67, ((4-methoxy-2-(((3S,8S,9R,10S)-8-(4-methoxybenzyl)-10-methyl-2-oxo-9-phenoxy-1,5-dioxecan-3-yl)carbamoyl)pyridin-3-yl)oxy)methyl isobutyrate], the pest or weed control at 121.5 g/ha in the assay with Puccinia triticina (setting [1]) was greater than 80%; in the assay with Puccinia triticina (setting [2]) it was less than 80%; in the assay with Zymoseptoria tritici (setting [3]), greater than 80%; in the assay with Zymoseptoria tritici (setting [4]), less than 80%.
Turning to `COc1ccc(C[C@H]2CCOC[C@H](NC(=O)c3nccc(OC)c3OC(=O)C(C)C)C(=O)O[C@@H](C)[C@@H]2Oc2ccccc2)cc1` [Compound 68], the pest or weed control at 121.5 g/ha is greater than 80% in the assay on Puccinia triticina (setting [1]), less than 80% in the assay with Zymoseptoria tritici (setting [3]) and less than 80% with Zymoseptoria tritici (setting [4]).
Regarding `CC[C@H]1CCOC[C@H](NC(=O)c2nccc(OC)c2OCOC(C)=O)C(=O)O[C@@H](C)[C@@H]1Oc1ccccc1` [Compound 69], the pest or weed control at 121.5 g/ha with Puccinia triticina (setting [1]), in the assay on Puccinia triticina (setting [2]), in the assay with Zymoseptoria tritici (setting [3]) and with Zymoseptoria tritici (setting [4]) was greater than 80% in each case.
Turning to `CC[C@H]1CCOC[C@H](NC(=O)c2nccc(OC)c2OCOC(C)=O)C(=O)O[C@@H](C)[C@@H]1OCC(C)C` [Compound 70], the pest or weed control at 121.5 g/ha in the assay with Puccinia triticina (setting [1]) is greater than 80%; in the assay on Puccinia triticina (setting [2]) it was greater than 80%; with Zymoseptoria tritici (setting [3]), greater than 80%; in the assay on Zymoseptoria tritici (setting [4]), less than 80%.
On to `COc1ccnc(C(=O)N[C@H]2COCC[C@H](Cc3ccc(F)cc3)[C@@H](Oc3ccccc3)[C@H](C)OC2=O)c1OC(C)=O` [Compound 71], for which the pest or weed control at 121.5 g/ha with Puccinia triticina (setting [1]), in the assay on Puccinia triticina (setting [2]), with Zymoseptoria tritici (setting [3]) and with Zymoseptoria tritici (setting [4]) was greater than 80% throughout.
On to `COc1ccnc(C(=O)N[C@H]2COCC[C@H](Cc3ccc(F)cc3)[C@@H](Oc3ccccc3)[C@H](C)OC2=O)c1OCOC(C)=O` [Compound 72], for which the pest or weed control at 121.5 g/ha with Puccinia triticina (setting [1]), with Puccinia triticina (setting [2]), in the assay with Zymoseptoria tritici (setting [3]) and with Zymoseptoria tritici (setting [4]) was greater than 80% throughout.
With `COc1ccnc(C(=O)N[C@H]2COCC[C@H](Cc3ccc(F)cc3)[C@@H](Oc3ccccc3)[C@H](C)OC2=O)c1OCOC(=O)C(C)C` [Compound 73], the pest or weed control at 121.5 g/ha in the assay with Puccinia triticina (setting [1]), with Puccinia triticina (setting [2]), in the assay on Zymoseptoria tritici (setting [3]) and in the assay with Zymoseptoria tritici (setting [4]) was greater than 80% throughout.
As to `COc1ccnc(C(=O)N[C@H]2COCC[C@H](Cc3ccc(F)cc3)[C@@H](OCC3CC3)[C@H](C)OC2=O)c1OCOC(C)=O` [Compound 74], the pest or weed control at 121.5 g/ha in the assay with Puccinia triticina (setting [1]) was greater than 80%; in the assay on Puccinia triticina (setting [2]) it was greater than 80%; in the assay with Zymoseptoria tritici (setting [3]) it was greater than 80%; in the assay with Zymoseptoria tritici (setting [4]), less than 80%.
As to `COc1ccnc(C(=O)N[C@H]2COCC[C@H](Cc3ccc(F)cc3)[C@@H](OC(=O)C(C)C)[C@H](C)OC2=O)c1OC(C)=O` [Compound 75], the pest or weed control at 121.5 g/ha is greater than 80% in the assay with Puccinia triticina (setting [1]), greater than 80% in the assay on Puccinia triticina (setting [2]), greater than 80% in the assay with Zymoseptoria tritici (setting [3]) and less than 80% with Zymoseptoria tritici (setting [4]).
In the case of `COc1ccnc(C(=O)N[C@H]2COCC[C@H](Cc3ccc(F)cc3)[C@@H](OC(=O)C(C)C)[C@H](C)OC2=O)c1OCOC(C)=O` [Compound 76], the pest or weed control at 121.5 g/ha with Puccinia triticina (setting [1]), in the assay with Puccinia triticina (setting [2]), in the assay on Zymoseptoria tritici (setting [3]) and in the assay with Zymoseptoria tritici (setting [4]) was greater than 80% in each case.
On to `COc1ccnc(C(=O)N[C@H]2COCC[C@H](Cc3ccc(F)cc3)[C@@H](OCC3CC3)[C@H](C)OC2=O)c1OC(C)=O` [Compound 77], for which the pest or weed control at 121.5 g/ha with Puccinia triticina (setting [1]) was greater than 80%; in the assay on Puccinia triticina (setting [2]) it was greater than 80%; in the assay on Zymoseptoria tritici (setting [3]) it was greater than 80%; in the assay with Zymoseptoria tritici (setting [4]), less than 80%.
As to `CCOCC(=O)OCOc1c(OC)ccnc1C(=O)N[C@H]1COCC[C@H](Cc2ccc(F)cc2)[C@@H](OCC2CC2)[C@H](C)OC1=O` [Compound 78], the pest or weed control at 121.5 g/ha was greater than 80% in the assay on Puccinia triticina (setting [1]), greater than 80% in the assay with Puccinia triticina (setting [2]), greater than 80% in the assay with Zymoseptoria tritici (setting [3]) and less than 80% in the assay on Zymoseptoria tritici (setting [4]).
Turning to `CC[C@H]1CCOC[C@H](NC(=O)c2nccc(OC)c2OCOC(C)=O)C(=O)O[C@@H](C)[C@@H]1OC(=O)C1CC1` [Compound 79], the pest or weed control at 121.5 g/ha with Puccinia triticina (setting [1]), in the assay with Puccinia triticina (setting [2]) and in the assay with Zymoseptoria tritici (setting [3]) was greater than 80% throughout.
As for `CC[C@H]1CCOC[C@H](NC(=O)c2nccc(OC)c2OC(C)=O)C(=O)O[C@@H](C)[C@@H]1OC(=O)c1ccccc1` [Compound 80], the pest or weed control at 121.5 g/ha in the assay with Puccinia triticina (setting [1]) was greater than 80%; in the assay on Puccinia triticina (setting [2]), greater than 80%; with Zymoseptoria tritici (setting [3]), greater than 80%; in the assay with Zymoseptoria tritici (setting [4]), less than 80%.
`COc1ccnc(C(=O)N[C@H]2COCCC[C@@H](CCC(C)C)[C@H](C)OC2=O)c1O` [Compound 112]: the pest or weed control at 100 µg/mL in the assay with Puccinia triticina (setting [1]), in the assay on Puccinia triticina (setting [2]), with Zymoseptoria tritici (setting [3]) and in the assay with Zymoseptoria tritici (setting [4]) was less than 80% in each case.
